Source: ChEMBL document CHEMBL4043256, “Discovery of N-substituted 7-azaindoles as PIM1 kinase inhibitors - Part I” (Bioorg Med Chem Lett, 2017)

Tests used:
[1] = molecular target: Serine/threonine-protein kinase pim-2 (Homo sapiens, UniProt Q9P1W9); test: Inhibition of PIM2 (unknown origin) assessed as reduction in full length human BAD phosphorylation at Ser112 residues by TR-FRET assay
[2] = molecular target: Serine/threonine-protein kinase pim-3 (Homo sapiens, UniProt Q86V86); test: Inhibition of PIM3 (unknown origin) assessed as reduction in full length human BAD phosphorylation at Ser112 residues by TR-FRET assay
[3] = molecular target: Cyclin-dependent kinase 9 (Homo sapiens, UniProt P50750)
[4] = molecular target: Cell division cycle 7-related protein kinase (Homo sapiens, UniProt O00311); test: Inhibition of CDC7 (unknown origin)
Chain of Cell division cycle 7-related protein kinase (O00311 whole entry): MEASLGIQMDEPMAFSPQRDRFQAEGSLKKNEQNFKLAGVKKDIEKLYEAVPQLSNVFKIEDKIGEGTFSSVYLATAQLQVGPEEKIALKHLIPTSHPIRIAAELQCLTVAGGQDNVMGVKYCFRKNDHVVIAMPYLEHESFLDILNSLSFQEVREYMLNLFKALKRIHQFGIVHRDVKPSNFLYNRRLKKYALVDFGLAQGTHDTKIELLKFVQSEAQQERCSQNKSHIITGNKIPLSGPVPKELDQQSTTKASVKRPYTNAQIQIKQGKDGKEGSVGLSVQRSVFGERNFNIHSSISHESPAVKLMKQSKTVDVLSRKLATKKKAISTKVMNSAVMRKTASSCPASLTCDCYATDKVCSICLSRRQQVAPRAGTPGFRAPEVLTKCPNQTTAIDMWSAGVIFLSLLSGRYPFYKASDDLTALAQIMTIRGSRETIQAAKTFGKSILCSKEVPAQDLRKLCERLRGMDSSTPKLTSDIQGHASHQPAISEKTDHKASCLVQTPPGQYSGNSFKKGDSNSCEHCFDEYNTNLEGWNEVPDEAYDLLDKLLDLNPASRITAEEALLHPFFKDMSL

Chain of Serine/threonine-protein kinase pim-2 (Q9P1W9 whole entry): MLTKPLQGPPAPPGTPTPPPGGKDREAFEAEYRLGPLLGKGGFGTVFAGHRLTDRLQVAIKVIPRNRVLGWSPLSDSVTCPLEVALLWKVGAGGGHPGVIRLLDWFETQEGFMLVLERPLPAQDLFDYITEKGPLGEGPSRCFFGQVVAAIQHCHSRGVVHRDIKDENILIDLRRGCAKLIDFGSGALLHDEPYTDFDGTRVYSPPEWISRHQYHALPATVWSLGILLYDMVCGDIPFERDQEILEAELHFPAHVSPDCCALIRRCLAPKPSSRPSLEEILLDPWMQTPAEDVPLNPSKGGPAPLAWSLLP
Chain of Cyclin-dependent kinase 9 (P50750 whole entry): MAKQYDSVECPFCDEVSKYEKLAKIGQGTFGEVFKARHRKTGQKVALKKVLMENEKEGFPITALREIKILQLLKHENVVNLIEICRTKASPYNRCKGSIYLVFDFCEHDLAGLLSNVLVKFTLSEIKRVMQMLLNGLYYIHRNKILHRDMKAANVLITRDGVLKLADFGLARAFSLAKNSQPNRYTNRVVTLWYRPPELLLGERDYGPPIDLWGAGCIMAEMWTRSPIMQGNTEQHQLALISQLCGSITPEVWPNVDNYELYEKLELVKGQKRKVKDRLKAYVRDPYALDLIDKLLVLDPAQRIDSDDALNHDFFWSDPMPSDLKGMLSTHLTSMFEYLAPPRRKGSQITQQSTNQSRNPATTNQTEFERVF

Compound	IC50 [1] [nM]	IC50 [2] [nM]	IC50 [3] [nM]	IC50 [4] [nM]
Cc1c(-c2ccc(N3CCNCC3)cc2)n(C)c2nc(C(N)=O)cc(Cl)c12	1270	290	–	–
CN1CCC(NC(=O)c2ccc(-c3c(-c4ccc(N5CCN(C)CC5)cc4)n(C)c4nccc(Cl)c34)cc2)CC1	872	492	–	–
CN(C)Cc1ccc(-c2c(-c3ccc(N4CCNCC4)cc3)n(C)c3nc(C(N)=O)cc(Cl)c23)cc1	> 30000	–	–	–

Next, values leading:

IC50 [1] [nM]	IC50 [2] [nM]	IC50 [3] [nM]	IC50 [4] [nM]	Compound
13800	10600	–	–	Cn1c(-c2ccc(N3CCNCC3)cc2)c(-c2ccc(CO)cc2)c2c(Cl)ccnc21
–	–	20	40	Clc1ccnc2[nH]c(-c3ccc(N4CCNCC4)cc3)cc12
3300	1400	–	–	CN(C)Cc1ccc(-c2c(-c3ccc(N4CCN(C)CC4)cc3)n(C)c3nccc(Cl)c23)cc1
> 30000	400	–	–	CN1CCN(c2ccc(-c3cc4c(Cl)cc(C(N)=O)nc4n3C)cc2)CC1
